Literature values as cited in patent publication US20080009419A1, “GENETIC MODELS FOR STRATIFICATION OF CANCER RISK” (INTERGENETICS, INC., priority 2006, published 2008).
Like-named read-outs stand apart in the source and are kept apart here.

Experiments:
[1] = for range of peak plasma concentration: single oral dose of 20 mg tamoxifen
[2] = tested on: incidence of breast cancer; conditions: large osteoporosis prevention and treatment study
[3] = tested on: invasive breast cancer incidence; conditions: postmenopausal women at high risk, by mouth once a day
[4] = following chronic dosing
[5] = tested on: estrogen receptors; conditions: preclinical data
[6] = tested on: estrogen receptors; conditions: animal test systems
[7] = tested on: rat mammary carcinoma induced by dimethylbenzanthracene (DMBA); conditions: rats
[8] = 10 mg tamoxifen twice daily for 3 months, patients
[9] = 20 mg tamoxifen once daily for 3 months

Row | Structure (SMILES) | range of steady-state plasma concentration [1, 8] | range of steady-state plasma concentration [1, 9] | range of peak plasma concentration [1] | reduction in invasive breast cancer incidence [3] | other results
1 | CC/C(=C(\c1ccccc1)c1ccc(OCCNC)cc1)c1ccccc1 [N-desmethyl tamoxifen] | 148 to 654 ng/mL | 152 to 706 ng/mL | 10 to 20 ng/mL |  | half-life suggested by time to steady state ([1]; human, in vivo): approximately 14 days
2 | O=C(c1ccc(OCCN2CCCCC2)cc1)c1c(-c2ccc(O)cc2)sc2cc(O)ccc12 [Raloxifene] |  |  |  | 50% | incidence of breast cancer [2]: shown to reduce the incidence of breast cancer; clearance [4]: 40 to 60 L/kg per hour; estrogen antagonism in uterine and breast tissues [5]: estrogen antagonist
3 | CC/C(=C(\c1ccccc1)c1ccc(OCCN(C)C)cc1)c1ccccc1.O=C(O)CC(O)(CC(=O)O)C(=O)O [Tamoxifen citrate, (Z)2-[4-(1,2-diphenyl-1-butenyl)phenoxy]-N,N-dimethylethanamine 2-hydroxy-1,2,3-propanetricarboxylate (1:1)] |  |  |  |  | antiestrogenic properties [6]: potent antiestrogenic properties
4 | CC/C(=C(\c1ccccc1)c1ccc(OCCN(C)C)cc1)c1ccccc1 [Tamoxifen] | 67 to 183 ng/mL | 71 to 183 ng/mL | 35 to 45 ng/mL | 50% | terminal elimination half-life ([1]; biphasic decline in plasma): 5 to 7 days; DMBA-induced tumors in situ [7]: causes the regression
